Read-outs that look alike come from different tables or passages of the source.
Target: T1, mouse TMEM16A mutant R535A (Mus musculus, UniProt Q8BHY3, R535A)
T1 construct: expressed in transfected cells; host or cells: HEK293T
T1 sequence (Q8BHY3 1-960 R535A): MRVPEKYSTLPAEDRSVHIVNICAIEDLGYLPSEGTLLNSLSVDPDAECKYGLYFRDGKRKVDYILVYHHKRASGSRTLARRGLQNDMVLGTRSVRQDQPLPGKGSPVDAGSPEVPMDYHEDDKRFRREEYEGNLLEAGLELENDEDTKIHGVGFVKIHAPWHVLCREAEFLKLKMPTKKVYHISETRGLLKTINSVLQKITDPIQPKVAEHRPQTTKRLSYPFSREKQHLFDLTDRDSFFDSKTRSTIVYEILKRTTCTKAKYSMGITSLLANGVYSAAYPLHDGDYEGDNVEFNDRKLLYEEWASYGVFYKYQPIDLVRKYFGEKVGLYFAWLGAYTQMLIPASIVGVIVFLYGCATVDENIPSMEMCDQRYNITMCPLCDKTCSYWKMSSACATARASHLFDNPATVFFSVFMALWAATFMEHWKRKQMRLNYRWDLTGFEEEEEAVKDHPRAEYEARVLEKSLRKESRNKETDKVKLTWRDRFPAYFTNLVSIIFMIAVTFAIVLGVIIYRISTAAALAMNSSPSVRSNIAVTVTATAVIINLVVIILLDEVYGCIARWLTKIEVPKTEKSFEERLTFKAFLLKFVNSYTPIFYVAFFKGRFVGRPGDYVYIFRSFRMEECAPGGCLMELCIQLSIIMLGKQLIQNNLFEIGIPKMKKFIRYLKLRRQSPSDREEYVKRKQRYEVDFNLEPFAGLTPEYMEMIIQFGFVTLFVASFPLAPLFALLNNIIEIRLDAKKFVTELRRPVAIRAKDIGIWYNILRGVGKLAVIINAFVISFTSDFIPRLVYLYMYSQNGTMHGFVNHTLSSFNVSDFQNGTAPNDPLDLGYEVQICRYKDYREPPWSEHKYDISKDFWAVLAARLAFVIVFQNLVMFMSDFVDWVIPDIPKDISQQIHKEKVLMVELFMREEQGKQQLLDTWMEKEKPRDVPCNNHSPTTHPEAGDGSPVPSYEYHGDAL
Test: Inside-out patch recording of 1PBC block, mutant R535A
Assay type: cell-based
Conditions: for remaining activity at 30 µM: 1PBC 30; for remaining activity at 30 µM / remaining activity at 100 µM: read-out: fraction of unblocked current; for remaining activity at 100 µM: 1PBC 100
Experimental: HEK293T cells (ATCC CRL-1573) were maintained in Dulbecco’s modified Eagle’s medium (DMEM; Sigma-Aldrich) supplemented with 10 U ml^−1 penicillin, 0.1 mg ml^−1 streptomycin (Sigma-Aldrich), 2 mM L-glutamine (Sigma-Aldrich), and 10% FBS (Sigma-Aldrich) in a humidified atmosphere containing 5% CO2 at 37 °C. HEK293S GnTI^− cells (ATCC CRL-3022) were maintained in HyClone HyCell TransFx-H medium (GE Healthcare) supplemented with 10 U ml^−1 penicillin, 0.1 mg ml^−1 streptomycin, 4 mM L-glutamine, 0.15% poloxamer 188 (Sigma-Aldrich), and 1% FBS in an atmosphere containing 5% CO2 at 185 rpm at 37 °C. The ac splice variant of mouse TMEM16A (UniProt ID: Q8BHY3), mouse TMEM16B (UniProt ID: Q8CFW1), or mouse TMEM16F (UniProt ID: Q6P9J9) bearing a 3C cleavage site, a Venus YFP, a Myc tag, and a Streptavidin-binding peptide (SBP) downstream of the open reading frame in a modified pcDNA3.1 vector (Invitrogen) were used as described previously[21],[31]. Mutations were introduced using a modified QuikChange method[58] and were verified by sequencing.
HEK293T cells were transfected with 3–4 μg DNA per 6 cm Petri dish using the calcium phosphate co-precipitation method and were used within 24–96 h after transfection. Recordings were performed on inside-out patches excised from HEK293T cells expressing the construct of interest. Patch pipettes were pulled from borosilicate glass capillaries (O.D. 1.5 mm, I.D. 0.86 mm, Sutter Instrument) and were fire-polished with a microforge (Narishige) before use. Pipette resistance was typically 3–8 MΩ when filled with the recording solutions detailed below. Seal resistance was typically 4 GΩ or higher. Voltage-clamp recordings were made using Axopatch 200B, Digidata 1550, and Clampex 10.7 (Molecular Devices). Analog signals were filtered with the in-built 4-pole Bessel filter at 10 kHz and were digitized at 20 kHz. Solution exchange was achieved using a gravity-fed system through a theta glass pipette mounted on an ultra-fast piezo-driven stepper (Siskiyou). […] All recordings were performed at 20 °C.
A symmetrical ionic condition was used throughout. Stock solution with Ca^2+-EGTA contained 150 mM NaCl, 5.99 mM Ca(OH)2, 5 mM EGTA, and 10 mM HEPES at pH 7.40. Stock solution with EGTA contained 150 mM NaCl, 5 mM EGTA, and 10 mM HEPES at pH 7.40. Free Ca^2+ concentrations were adjusted by mixing the stock solutions at the required ratios calculated using the WEBMAXC program (http://web.stanford.edu/~cpatton/webmaxcS.htm). Patch pipettes were filled with the stock solution with Ca^2+-EGTA, which has a free Ca^2+ concentration of 1 mM. 1PBC (ChemBridge) stock was reconstituted in anhydrous DMSO (Sigma-Aldrich) at 100 mM and stored at −20 °C. Working solutions with 1PBC were prepared by serial dilution. Unless otherwise stated, experiments were performed at a saturating Ca^2+ concentration as shown in Supplementary Table 1 and the primary data were corrected for current rundown as described previously[21],[25].
Concentration-response relations, obtained from the ratio of the I-V plots before and after the application of the blocker, were fitted to the Hill equation,1 I/Imax=1/1+IC50/[blocker]^h where I/Imax is the normalized current responses, IC50 defines the concentration at which inhibition is at its half-maximum, and h is the Hill coefficient.

N#Cc1c(C(F)(F)F)cc(O)n2c1nc1ccccc12 [1PBC]
remaining activity at 30 µM (-60 mV): 41.8%
remaining activity at 30 µM (-80 mV): 46.3%
remaining activity at 30 µM (-100 mV): 50.1%
remaining activity at 30 µM (-120 mV): 53.6%
remaining activity at 30 µM (-140 mV): 55.9%
remaining activity at 100 µM (0 mV): 10.2%
remaining activity at 100 µM (20 mV): 8.03%
remaining activity at 100 µM (40 mV): 6.85%
remaining activity at 100 µM (60 mV): 5.65%
remaining activity at 100 µM (80 mV): 5.26%
remaining activity at 100 µM (100 mV): 4.79%
remaining activity at 100 µM (120 mV): 4.05%
remaining activity at 100 µM (140 mV): 4.54%
remaining activity at 100 µM (-20 mV): 12.4%
remaining activity at 100 µM (-40 mV): 14.1%
remaining activity at 100 µM (-60 mV): 17.7%
remaining activity at 100 µM (-80 mV): 21.3%
remaining activity at 100 µM (-100 mV): 25.1%
remaining activity at 100 µM (-120 mV): 29%
remaining activity at 100 µM (-140 mV): 32.4%
IC50 (20 mV, 2 µM Ca2+): 9.48 µM
IC50 (40 mV, 2 µM Ca2+): 7.82 µM
IC50 (60 mV, 2 µM Ca2+): 6.65 µM
log-fold IC50 (change of mutant vs WT) (80 mV): 0.4043
IC50 (80 mV, 2 µM Ca2+): 6.02 µM
IC50 (100 mV, 2 µM Ca2+): 5.51 µM
IC50 (120 mV, 2 µM Ca2+): 5.53 µM
IC50 (140 mV, 2 µM Ca2+): 5.76 µM
IC50 (-20 mV, 2 µM Ca2+): 14.9 µM
IC50 (-40 mV, 2 µM Ca2+): 17.7 µM
IC50 (-60 mV, 2 µM Ca2+): 21.4 µM
IC50 (-80 mV, 2 µM Ca2+): 25.9 µM
IC50 (-100 mV, 2 µM Ca2+): 30.1 µM
IC50 (-120 mV, 2 µM Ca2+): 35.1 µM
IC50 (-140 mV, 2 µM Ca2+): 38.8 µM
IC50 (R535A, V 0 mV): 11.9 µM
IC50 (R535A, V 20 mV): 9.48 µM
IC50 (R535A, V 40 mV): 7.82 µM
IC50 (R535A, V 60 mV): 6.65 µM
IC50 (R535A, V 80 mV): 6.02 µM
IC50 (R535A, V 100 mV): 5.51 µM
IC50 (R535A, V 120 mV): 5.53 µM
IC50 (R535A, V 140 mV): 5.76 µM
IC50 (R535A, V -20 mV): 14.9 µM
IC50 (R535A, V -40 mV): 17.7 µM
IC50 (R535A, V -60 mV): 21.4 µM
IC50 (R535A, V -80 mV): 25.9 µM
IC50 (R535A, V -100 mV): 30.1 µM
IC50 (R535A, V -120 mV): 35.1 µM
IC50 (R535A, V -140 mV): 38.8 µM
